Laboratory results from patent US20220298510A1, “COMPOUNDS AND METHODS FOR INHIBITING CANCERS VIA REST INHIBITION” (Icahn School of Medicine at Mount Sinai, priority 2019, published 2022).

Key:
[1] = tested on: ATRX IFF NB cells; experiment: Proliferation (Incucyte, percent confluence normalized to DMSO) of ATRX IFF NB cells; format: cell-based, human; conditions: proliferation IC50 curves, day 12 (FIG. 11a)
Source text: GAPDH used as a loading control. […] Percent confluence normalized to DMSO for each condition and plotted at day 12. Values normalized mean n±SD (n=3). Statistical significance assessed using student's unpaired t-test with each cell line compared to DMSO (* indicates p<0.05). […] Percent AV positive cells plotted, values are mean n±SD (n=3). Statistical significance assessed using student's unpaired t-test with each cell line compared to DMSO (* indicates p<0.05). (d) Tumor volume measurements of CHLA-90 cells subcutaneously injected into immunocompromised mice. Mice were treated with vehicle or UNC1999 at 300 mg/kg of body weight for 25 days, values mean n±SEM (n=9). Statistical significance assessed using student's unpaired t-test compared to vehicle (* indicates p<0.001). […]
Proliferation evaluated using the […] […] IC50 for each cell line calculated in Prism. […] Statistical significance assessed using student's unpaired t-test with each cell line compared to DMSO (* indicates p<0.05). […] Proliferation assessed in the same manner as (a). Statistical significance assessed using student's unpaired t-test with each cell line compared to DMSO (* indicates p<0.05). […] AV staining assessed in the same manner as (b). […] Proliferation assessed in the same manner as (a). […] AV staining assessed in the same manner as (b).
GAPDH used as a loading control. […] Proliferation evaluated using the Incucyte™ Life-Cell Imaging System. […]

[2] = tested on: CHLA-90 xenografts; experiment: CHLA-90 xenografts in immunocompromised mice; format: in vivo; conditions: 300 mg/kg of body weight, 25 days
Source text: GAPDH used as a loading control. […] Percent confluence normalized to DMSO for each condition and plotted at day 12. Values normalized mean n±SD (n=3). Statistical significance assessed using student's unpaired t-test with each cell line compared to DMSO (* indicates p<0.05). […] Percent AV positive cells plotted, values are mean n±SD (n=3). Statistical significance assessed using student's unpaired t-test with each cell line compared to DMSO (* indicates p<0.05). (d) Tumor volume measurements of CHLA-90 cells subcutaneously injected into immunocompromised mice. Mice were treated with vehicle or UNC1999 at 300 mg/kg of body weight for 25 days, values mean n±SEM (n=9). Statistical significance assessed using student's unpaired t-test compared to vehicle (* indicates p<0.001). (e) Tumor weight measurement from xenografts collected in (d), values mean n±SEM (n=9). Images of excised tumors underneath (* indicates p<0.001). (f) Immunoblots for H3K27me3 from acid extracted histones derived from vehicle and treated xenografts. H4 and histones used as loading controls.

| SMILES | sensitivity of ATRX IFF NB cells compared to other NB subtypes [1] | tumor growth and volume compared to vehicle-treated tumors [2] |
| --- | --- | --- |
| CCN(c1cc(-c2ccc(CN3CCOCC3)cc2)cc(C(=O)NCc2c(C)cc(C)[nH]c2=O)c1C)C1CCOCC1 [EPZ-6438, Tazemetostat] | 5-10 fold |  |
| CCCc1cc(C)[nH]c(=O)c1CNC(=O)c1cc(-c2ccc(N3CCN(C(C)C)CC3)nc2)cc2c1cnn2C(C)C [UNC1999] |  | significant reduction |
